Where a SMILES comes first, the peptide text is derived from it. The star is where a group is joined. Palmitoyl = CCCCCCCCCCCCCCCC(=O)*
Experiments:
Hs_FPR2 [1] = molecular target: T1, Hs_FPR2 (Homo sapiens, UniProt P25090); assay: Competition binding of fluorescent WKYMVm, flow cytometry
T1 construct: expressed in transfected cells
T1 sequence (P25090 1-351): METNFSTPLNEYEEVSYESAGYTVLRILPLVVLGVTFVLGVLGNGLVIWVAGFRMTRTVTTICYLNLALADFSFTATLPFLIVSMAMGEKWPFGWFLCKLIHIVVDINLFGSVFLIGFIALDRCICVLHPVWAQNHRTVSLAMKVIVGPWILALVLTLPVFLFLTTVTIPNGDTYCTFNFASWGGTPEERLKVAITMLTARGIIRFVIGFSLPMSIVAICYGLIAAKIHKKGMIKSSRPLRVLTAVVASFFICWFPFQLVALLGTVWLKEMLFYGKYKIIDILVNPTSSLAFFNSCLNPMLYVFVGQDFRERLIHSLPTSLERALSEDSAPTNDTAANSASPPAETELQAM
Method: (§1) Mean cell fluorescence was then measured for 5000 cells by flow cytometry using either a BD FACScalibur or BD Attune.
(§2) All data were analyzed using GraphPad Prism using the nonlinear regression log(agonist) versus response (3 parameters) function for all assays, except binding, which was analyzed using the One site-FitlogIC50 function. Bias calculations were carried out following IUPHAR guidelines as described,[27]^,[37] and data were presented as the Δ Activity ratio (Log[EmaxB/EC50B])-(Log[EmaxA/EC50A]).

Mm_Fpr2 [2] = molecular target: T2, Mm_Fpr2 (Mus musculus, UniProt O88536); assay: as above; conditions: for Max Comp (%): maximum proportion of competition with 10 nM K(5/6-FAM)-WKYMVm
T2 construct: expressed in transfected cells
T2 sequence (O88536 1-351): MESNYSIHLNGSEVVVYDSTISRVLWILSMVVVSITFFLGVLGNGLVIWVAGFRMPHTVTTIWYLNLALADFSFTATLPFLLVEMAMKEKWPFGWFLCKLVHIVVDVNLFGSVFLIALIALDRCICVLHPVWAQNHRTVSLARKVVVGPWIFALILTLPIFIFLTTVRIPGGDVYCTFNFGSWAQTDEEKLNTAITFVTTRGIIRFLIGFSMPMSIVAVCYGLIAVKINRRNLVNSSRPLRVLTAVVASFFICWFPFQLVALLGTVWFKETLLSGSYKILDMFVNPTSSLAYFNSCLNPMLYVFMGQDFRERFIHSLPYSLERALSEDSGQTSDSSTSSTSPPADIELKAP
Method: as §1, §2

Hs_FPR2 [3] = molecular target: T1, Hs_FPR2; assay: BRET receptor-RLuc8 interaction with Venus-mGsi; assay type: cell-based
Method: (§3) BRET1 assays to measure FPR interaction with Venus-mGsi and Arrestin 3-yellow fluorescent protein (YFP) were performed as previously described.[31]^,[32] Briefly, all FPRs C-terminally fused to Renilla Luciferase (donor, RLuc8) were transiently transfected along with either Venus-mGsi or YFP-Arrestin 3 (acceptor) at a ratio of 1:4. 24 hours post transfection, cells were replated into white-walled, 96-well plates and cultured for a further 24–48 hours. On the day of experimentation, growth media was aspirated and replaced with 80 μl Hanks Buffered Saline Solution and equilibrated for 30 minutes. Coelenterazine h was added to each well to a final concentration of 5 μM for 5 minutes before the addition of each compound, and the plate was incubated for a further 10 minutes at 37 °C before being read on a ClarioStar Plus, with luminescence measured at 480/20 nm (donor) and 530/20 (acceptor). The BRET ratio (acceptor/donor) was determined, and the background (untreated) subtracted to give the N-BRET value.
as §2

Mm_Fpr2 [4] = molecular target: T2, Mm_Fpr2; assay: BRET receptor-RLuc8 interaction with Venus-mGsi; assay type: cell-based
Method: as §3, §2

Hs_FPR2 [5] = molecular target: T1, Hs_FPR2; assay: ERK1/2 phosphorylation by Western blotting; assay type: cell-based
Method: (§4) ERK phosphorylation was detected by Western blotting as previously described.[30] Briefly, HEK293 cells stably expressing FLAG-tagged FPRs were plated into 12-well culture plates until 90% confluent. On the day of the experiment, culture media was replaced with serum-free Dulbecco’s modified Eagle’s medium and incubated for 2 hours before stimulation with the indicated compounds. After 7 minutes, the media was removed and stimulation terminated by the addition of 100 μl sample buffer (0.5% SDS, Tris (pH 6.8), glycerol, at >90 °C).
as §2

Mm_Fpr2 [6] = molecular target: T2, Mm_Fpr2; assay: ERK1/2 phosphorylation by Western blotting; assay type: cell-based
Method: as §4, §2

Hs_FPR2 [7] = molecular target: T1, Hs_FPR2; assay: BRET receptor-RLuc8 interaction with Arrestin 3-YFP; assay type: cell-based
Method: as §3, §2

Mm_Fpr2 [8] = molecular target: T2, Mm_Fpr2; assay: as above; assay type: cell-based
Method: as §3, §2

Mm_Fpr2 [9] = molecular target: T2, Mm_Fpr2; assay: Internalization of FLAG-tagged receptors by flow cytometry; assay type: cell-based; parameters: Emax: dose or concentration left out as unconfirmed
Method: (§5) Internalization of FPRs was measured by flow cytometry.[30] Briefly, cells were incubated with Alexa Fluor 657 conjugated M1 antiflag antibody (Sigma-Aldrich Cat# F3040, RRID:AB_439712) for 30 minutes at 37 °C to label surface receptors. Cells were then incubated with the indicated concentration of ligand before washing in PBS/0.04% EDTA to remove any remaining surface antibody. Remaining fluorescence was then measured using flow cytometry on either a BD FACScalibur or Attune, recording 5000 gated events. […] As a control, some samples were left untreated, and “strip only” was measured as a readout of constitutive endocytosis, and this value was subtracted from the data. Vehicle control (0.1% DMSO) had no effect on internalization of receptors.
as §2

Mm_Fpr1 [10] = molecular target: T3, Mm_Fpr1 (Mus musculus, UniProt P33766); assay: Competition binding of fluorescent WKYMVm, flow cytometry; conditions: mean, ND = no competition observed
T3 construct: expressed in transfected cells
T3 sequence (P33766 1-364): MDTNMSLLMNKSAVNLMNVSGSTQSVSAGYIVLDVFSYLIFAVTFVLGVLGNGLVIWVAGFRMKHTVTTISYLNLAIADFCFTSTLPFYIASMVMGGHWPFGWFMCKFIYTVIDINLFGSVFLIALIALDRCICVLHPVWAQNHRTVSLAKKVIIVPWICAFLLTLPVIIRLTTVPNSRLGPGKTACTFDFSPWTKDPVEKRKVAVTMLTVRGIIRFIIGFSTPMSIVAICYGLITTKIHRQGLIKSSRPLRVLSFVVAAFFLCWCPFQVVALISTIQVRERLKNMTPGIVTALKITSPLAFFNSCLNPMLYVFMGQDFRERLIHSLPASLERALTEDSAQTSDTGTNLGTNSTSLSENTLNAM
Method: as §1, §2

Mm_Fpr1 [11] = molecular target: T3, Mm_Fpr1; assay: BRET receptor-RLuc8 interaction with Venus-mGsi; assay type: cell-based; conditions: mGsi BRET, mean, ND = no interaction detected
Method: as §3, §2

Mm_Fpr1 [12] = molecular target: T3, Mm_Fpr1; assay: ERK1/2 phosphorylation by Western blotting; assay type: cell-based; conditions: mean, ND = no pERK signal detected
Method: as §4, §2

Mm_Fpr1 [13] = molecular target: T3, Mm_Fpr1; assay: BRET receptor-RLuc8 interaction with Arrestin 3-YFP; assay type: cell-based; conditions: Arrestin 3 BRET, % of response to 1 μM WKYMVm; mean; ND = no interaction detected
Method: as §3, §2

Mm_Fpr1 [14] = molecular target: T3, Mm_Fpr1; assay: Internalization of FLAG-tagged receptors by flow cytometry; assay type: cell-based; parameters: Emax: dose or concentration left out as unconfirmed
Method: as §5, §2

[15] = tested on: formyl peptide receptor family (Hs_FPR1, Hs_FPR2, Mm_Fpr1, Mm_Fpr2); assay: Summary of main findings: receptor subtype selectivity and ligand bias across all readouts; parameters: species or system human and mouse
Text: To determine ligand bias, a reference ligand is required, that is, “balanced” for the pathways tested.[37] […] We then used measurements of the activity ratio (Log (Emax/EC50)) for each receptor, ligand, and pathway in an attempt to observe any ligand bias (Fig. 6).

[16] = mean, ND = no competition observed
[17] = log of EC50, phosphorylation of ERK1/2, HEK293 stable cells, mean, ND = no pERK signal detected

CCCCCCCCCCCCCCCC(=O)N[C@@H](CCCCN)C(=O)N[C@H](C(=O)N[C@@H](Cc1c[nH]cn1)C(=O)N[C@@H](CCCCN)C(=O)N[C@@H](CCCCN)C(=O)NCC(=O)N[C@@H](CCSC)C(=O)N[C@H](C(=O)N[C@@H](CCCCN)C(=O)N[C@@H](CO)C(=O)O)[C@@H](C)CC)[C@@H](C)CC [F2Pal10] (Palmitoyl-KIHKKGMIKS-OH)
IC50 (Hs_FPR2 [1]): 5370 nM | Max Comp (%) (Hs_FPR2 [1]; maximum proportion of competition with 10 nM K(5/6-FAM)-WKYMVm, mean, ND = no competition observed): 100% | IC50 (Mm_Fpr2 [2]): 4200 nM | Max Comp (%) (Mm_Fpr2 [2]; [16]): 100% | EC50 (Hs_FPR2 [3]): 166 nM | Emax (Hs_FPR2 [3]): 19.4% | Gi interaction, % of that seen with WKYMVm (Hs_FPR2 [3]; only detected at 1 and 10 μM): 20% | EC50 (Mm_Fpr2 [4]): 166 nM | Emax (Mm_Fpr2 [4]): 24.2% | Emax (Hs_FPR2 [5]): 80.8% | EC50 (Hs_FPR2 [5]; [17]): 33.7 nM | Emax (Mm_Fpr2 [6]): 141% | EC50 (Mm_Fpr2 [6]; [17]): 53.3 nM | Emax (Hs_FPR2 [7]): 25.5% | EC50 (Hs_FPR2 [7]; read-out: Log EC50 (converted)): 282 nM | EC50 (Mm_Fpr2 [8]): 263 nM | Emax (Mm_Fpr2 [8]): 33.4% | Emax (Mm_Fpr2 [9]): 12.3%

CC(C)c1c(NC(=O)Nc2ccc(Cl)cc2)c(=O)n(-c2ccccc2)n1C [TC-FPR43]
Log IC50 (M) (Mm_Fpr1 [10]; log of IC50, competition with 10 nM K(5/6-FAM)-WKYMVm, HEK293 stable cells, on ice 90 min): −5.926 M | Max Comp (%) (Mm_Fpr1 [10]; maximum proportion of competition with 10 nM K(5/6-FAM)-WKYMVm): 61.39% | Log IC50 (M) (Mm_Fpr2 [2]; log of IC50, competition with 10 nM K(5/6-FAM)-WKYMVm, HEK293 stable cells, on ice 90 min, mean, ND = no competition observed): −6.16 M | Max Comp (%) (Mm_Fpr2 [2]; [16]): 29.56% | Log EC50 (M) (Mm_Fpr1 [11]; log of EC50, HEK293 transient, 10 min): −7.09 M | Emax (%) (Mm_Fpr1 [11]; % of response to 1 μM WKYMVm): 12.62% | Log EC50 (M) (Mm_Fpr2 [4]; log of EC50, mGsi BRET, HEK293 transient, 10 min, mean, ND = no interaction detected): −6.19 M | Emax (%) (Mm_Fpr2 [4]; mGsi BRET, % of response to 1 μM WKYMVm, mean, ND = no interaction detected): 73.16% | Log EC50 (M) (Mm_Fpr1 [12]; log of EC50, phosphorylation of ERK1/2, HEK293 stable cells): −7.589 M | Emax (%) (Mm_Fpr1 [12]; phospho-ERK, % of 1 μM WKYMVm): 78.28% | Log EC50 (M) (Mm_Fpr2 [6]; [17]): −6.775 M | Emax (%) (Mm_Fpr2 [6]; phospho-ERK, % of 1 μM WKYMVm, mean, ND = no pERK signal detected): 147.8% | Emax (%) (Mm_Fpr1 [13]): 39.42% | Emax (%) (Mm_Fpr2 [8]; Arrestin 3 BRET, % of response to 1 μM WKYMVm, mean, ND = no interaction detected): 73.06% | Log EC50 (M) (Mm_Fpr2 [8]; log of EC50, Arrestin 3 BRET, HEK293 transient, 10 min, mean, ND = no interaction detected): −6.20 M | Emax (%), internalization, Mean (Mm_Fpr1 [14]; % of internalization to WKYMVm (1 mM in legend, 1 μM in text), Mm_Fpr1, 30 minutes, ND denotes no internalization measured): 95.95% | Log EC50 (M), internalization, Mean (Mm_Fpr1 [14]; Log EC50, HEK293 stably expressing FLAG-Mm_Fpr1, ligand 30 minutes, ND denotes no internalization measured): −6.155 M | agonist-induced internalization (words) (Mm_Fpr1 [14]; Mm_Fpr1, 30 min, relative to 1 μM WKYMVm): partial agonists | Emax (%), internalization, Mean (Mm_Fpr2 [9]; % of internalization to WKYMVm (1 mM in legend, 1 μM in text), Mm_Fpr2, 30 minutes): 42.90% | Log EC50 (M), internalization, Mean (Mm_Fpr2 [9]; Log EC50, HEK293 stably expressing FLAG-Mm_Fpr2, ligand 30 minutes): −7.063 M | agonist-induced internalization (words) (Mm_Fpr2 [9]; Mm_Fpr2, 30 min, relative to 1 μM WKYMVm): partial agonists | Bias ([15]; summary grade of ligand bias relative to WKYMVm, key not given): No | Notes ([15]; summary of main findings, in words): Partial/weak only

— publication PMC12881670, “Investigation into ligand selectivity and bias at the formyl peptide receptor family” (The Journal of Pharmacology and Experimental Therapeutics, 2025)
